From patent publication US7378274B2, “Regulatory nucleic acid for the ABC1 gene, molecules modifying its activity and therapeutic uses” (Aventis Pharma S.A., priority 2000, dated 2008)

How the values were obtained:
[1] = tested on: E-box in the human ABC1 gene promoter; experiment: Gel mobility shift assay of E-box (EB) probe with RAW cell nuclear extracts; assay type: binding; settings: nuclear extracts of stimulated versus unstimulated RAW cells
Description: Three double-stranded human ABC1 promoter fragments (Fragment A spanning −171 to −71 bp; Fragment EB spanning −156 to −130 bp and Fragment EB spanning −156 to −130 bp) were end-labeled with […] using T4 polynucleotide kinase (Lofstrand, Gaithersburg Md.). Nuclear extracts were isolated from unstimulated RAW 264.7 cell and HepG2 cell as well as RAW 264.7 cells after stimulation with the same concentrations of cholesterol and 22(R)-Hch shown above (Paragon Bioservices Inc. Baltimore, Md.). One ng (10,000 cpm) of radiolabelled probe was added to 2.5 μg nuclear extract in 20 ul of a 20 mM TRIS gel shift buffer (pH 7.9) containing 60 mM KCl, 0.2 mM EDTA, 0.5 mM DTT, 0.25 mM PMS, 1.3 mM MgCl, 10% glycerol, 3% Ficoll and 3 μg of double-stranded poly (dldC) as described (Previato et al., J Biol Chem, 1991, 266:18958-18963) and incubated for 10 minutes on ice followed by 10 minutes at room temperature. The incubated mixture was loaded on a 6% polyacrylamide gel in 0.25×TBE buffer and electrophoresed at 100 V for 90 min followed by autoradiography. For competition assays, nuclear extracts were preincubated for 10 minutes on ice in a 20 μl reaction mixture in the presence or absence of a 100-200-fold excess of double-stranded DNA competitors for Sp1 (−173 to −155 bp), AP1 (−135 to −155 bp), LXR (−54 to −69 bp) and E-box (−158 to −136 bp) before addition of probe. […]

[2] = tested on: regulatory nucleic acid for the human ABC1 gene; experiment: Luciferase reporter under control of the -995 to +120 regulatory nucleic acid for the human ABC1 gene, transfected Hepa1-6 cells; assay type: cell-based
Description: The region of the regulatory acid for the human ABC1 gene which ranges from the nucleotide at position −-995 up to the nucleotide at position +120, with respect to the transcription start site, was amplified by the PCR technique, with the aid of the following pair of primers: • forward primer S995 (SEQ ID No. 12), of sequence 5′-TTGCCGTCGACTGTTTTGGGTAGTTT-3′; and • reverse primer +220R (SEQ ID No. 13), of sequence 5′-GCCCTGTCGACCGGCTCTGTTGGT-3′, • From human genomic DNA present in a BAC vector from a collection of human BAC vectors.
The DNA fragment amplified was digested with the restriction endonuclease Sal 1, and then inserted into the vector PXP1 described by Nordeen et al. (1988, BioTechniques, 6: 454-457), at the Sal 1 restriction site of this vector.
Cells of the Hepa1-6 line (ATCC, Rockville, Md., USA) were cultured in the medium E-MEM (Minimum Essential Medium with Earle's Salts), to which 10% (v/v) of fetal calf serum (BioWhittaker, Walkersville, Md.) was added.
Approximately 1.5×10^5 cells were distributed into each of the wells of a 12-well (2.5 cm) culture plate, and were cultured until approximately 50 to 70% confluence, and were then cotransformed with 1 μg of the plasmid Sal-Lucif and 0.5 μg of the control vector pBetagel (CloneTech Laboratories Inc., Palo Alto, Calif., USA) using the Superfectin Reagent Kit pack (QIAGEN Inc., Valencia, Calif., USA). Two hours after adding the DNA, the culture medium was removed, and replaced with complete AMEM (Minimum Essential Medium Eagle's Alpha Modification) medium. […]
Freshly thawed aliquot fractions were used to quantify the proteins, using the MicroBCA Kit pack (Pierce, Rockford, Ill., USA), as well as to quantify the luciferase and beta-galactosidase production, using, respectively, the Tropix Luciferase Assay Kit and Galacto-Light Plus Kit packs. […]

USF1 and USF2 = experiment: Western analysis of USF1 and USF2 in RAW cell nuclear extracts; assay type: cell-based; settings: RAW cells stimulated with cholesterol or oxysterols
Method: RAW cell nuclear extracts (35 μg protein per lane) from cells stimulated with cholesterol or 22-R-hydroxycholesterol were loaded onto NuPage Bis-Tris 4-12% gradient gels (Invitrogen, Carlsbad, Calif.) and run according to manufacturer's specifications. Proteins were transferred to Immobilon-P PVDF membranes (Millipore Corp, Bedford, Mass.). Antibodies (2 mg/ml stock) were from Santa Cruz Biotechnology, Inc. (Santa Cruz, Calif.) and were used according to manufacturer's specifications. Anti-USF1 C20X (catalog number sc-229X) antibody was used at a dilution of 1/600 and anti-USF2 antibodies C20X (catalog number sc862X) and N18X (catalog number sc861X) were used at a dilution of 1/1000.

human ABC1 promoter = experiment: Luciferase reporter under control of the -200 bp human ABC1 promoter (wild type or E-box mutant), transfected RAW 264.7 cells; assay type: cell-based; settings: 24 hours, 10 μM 9CRA, 2 μg/ml 22(R)-HOch
Description: Plasmids containing mutant SP1, AP1, E-box, LXR and deleted E-box fragments were constructed by site-directed mutagenesis using the overlap PCR method and the PXP1 −995 to +120 bp construct (Previato et al., JBC, 1991, 266:18958-63) as template. The primers listed below were used to amplify −200 to +44 bp of the human ABC1 promoter. Upper-case letters represent wild-type sequence whereas lower-case letters represent mutant sequence.
S224-HindIII and 44-HindIII were the upstream and downstream primers used for overlap PCR. The Hind III sites are underlined. The resulting fragments which spanned −200 to +44 of the human ABC1 gene were ligated into the HindIII site of the PXP1 luciferase reporter plasmid (Nordeen et al., Biotechniques, 1988, 6:454-457). All constructs were confirmed by sequencing.
Murine macrophage RAW 264.7 cells and human embryonic kidney 293 cells (American Type Culture Collection, Rockville, Md.) were grown in Dulbecco's modified Eagle's medium (DMEM) with 10% fetal calf serum (FCS). Approximately 1.5×10^5 cells were plated in 12-well plates (Costar, Corning, N.Y.), grown to 50-70% confluency and cotransfected with 1.5 μg of the ABC1 promoter-luciferase plasmid and 0.5 μg of the β-galactosidase vector (pCMVβ;Clontech, Palo Alto, Calif.) by using the Superfectin Reagent Kit (Qiagen, Valencia, Calif.). […]

SMILES	Gel shift banding patterns with EB probe [1]	Luciferase activity ([2]; Hepa1-6 cells, in the presence of 50 μg/ml cholesterol, cells recovered 16 hours after medium change) [RLU]	Increase in the activity ([2]; in the presence versus absence of cholesterol)	Normalized activity ([2]; luciferase normalized to β-galactosidase, in the presence of 50 μg/ml cholesterol)	Expression of USF immunoreactive bands (43 and 44 KDa) (USF1 and USF2)	Effect on ABC1 gene transcription (luciferase reporter) (human ABC1 promoter)
CC(C)CCC[C@@H](C)[C@H]1CC[C@H]2[C@@H]3CC=C4C[C@@H](O)CC[C@]4(C)[C@H]3CC[C@]12C [cholesterol]	No differences	500000	1.82	13.25	not altered	
CC1=C(/C=C/C(C)=C\C=C\C(C)=C\C(=O)O)C(C)(C)CCC1 [CRA, 9-cis-retinoic acid]						stimulatory effect
CC(C)CC[C@@H](O)[C@@H](C)[C@H]1CC[C@H]2[C@@H]3CC=C4C[C@@H](O)CC[C@]4(C)[C@H]3CC[C@]12C [oxysterols, 22-(R)-hydroxycholesterol]	No differences				not altered	stimulatory effect
